Data taken from patent US11186605B2 (KYOWA HAKKO BIO CO., LTD., priority 2016, dated 2021).
Where two headings read alike, the source gives them in different places.

Experiments:
[1] = crystal powder, 1.18 mm sieve, 100 mL container, average of three
Procedure: Here, the “loose specific volume” refers to a value which is obtained by dividing a volume occupied by a powder by a mass when the powder is filled in a container and the mass of the powder is measured.
The loose specific volume can be measured using Multi Tester MT-1001T (manufactured by Seishin Enterprise Co., Ltd.) according to the accompanying manual under the following conditions based on the 17th revision, Pharmacopoeia of Japan.
[Measurement Conditions for Loose Specific Volume]
(§1) Apparatus for use: multi-tester MT-1001T type (manufactured by Seishin Enterprise Co., Ltd.)
(§2) Vibration range: 0.7 mm to 0.8 mm
Specific example of method of measuring loose specific volume: A 100 mL cylindrical container made of stainless steel is filled while the crystal is dropped via a 1.18 mm sieve vibrated at a range of 0.7 mm to 0.8 mm. Excess powder is carefully rubbed off from the top surface of the container, and the mass of the powder is measured by subtracting the mass of an empty measurement container measured in advance. The measurement is independently performed three times to determine an average value.

[2] = crystal powder, after three impacts, mean of three sites
Excerpt: Here, the “angle of rupture” refers to an angle formed by a horizontal plane and a generating line of a cone which is formed when a certain impact is applied indirectly to a cone formed with a powder when the powder is allowed to gently fall onto the horizontal plane through a kind of a funnel.
The angle of rupture can be measured using Multi Tester MT-1001T (manufactured by Seishin Enterprise Co., Ltd.) according to the accompanying manual by the following method.
A weight attached to the bottom of a repose angle table unit (component number: MT-1028) is slowly lifted under a tapping table and allowed to fall after the measurement of the angle of repose. This operation is repeated three times. In the same manner as the method of measuring the angle of repose, angles are read at three sites, and the arithmetic mean thereof is determined to be the angle of rupture.

[3] = crystal powder, 400 taps at 1 tap/sec, 100 mL container, average of three
Procedure: Here, the “dense specific volume” refers to a value which is obtained by dividing a volume occupied by a powder by a mass when the powder is filled in a container, a certain impact is applied to the container, and then the mass of the powder is measured.
The dense specific volume can be measured, for example, using Multi Tester MT-1001T (manufactured by Seishin Enterprise Co., Ltd.) according to the accompanying manual under the following conditions based on the 17th revision, Pharmacopoeia of Japan.
[Measurement Conditions for Dense Specific Volume]
as §1, §2
Specific example of method of measuring dense specific volume: A 100 mL cylindrical container made of stainless steel equipped with an auxiliary cylinder is filled while the crystal is dropped via a 1.18 mm sieve vibrated at a range of 0.7 mm to 0.8 mm. […] The measurement is independently performed three times to determine an average value.

[4] = crystal powder, mean of three sites
Excerpt: Here, the “angle of repose” refers to an angle formed by a horizontal plane and a generating line of a cone formed with a powder when the powder is allowed to gently fall onto the horizontal plane through a kind of a funnel.
The angle of repose can be measured using Multi Tester MT-1001T (manufactured by Seishin Enterprise Co., Ltd.) according to the accompanying manual under the following conditions.
[Measurement Conditions for Angle of Repose]
as §1, §2
Specific example of method of measuring angle of repose: The crystal is piled on an repose angle table (component number: MT-1028) while dropped via a 1.18 mm sieve vibrated at a range of 0.7 mm to 0.8 mm. The repose angle table is rotated without giving vibration, angles are read at three sites, and an arithmetic mean thereof is determined to be the angle of repose.

Substance	Loose specific volume [1] [mg/L]	Angle of rupture [2] [degree]	Dense specific volume [3] [mg/L]	Angle of repose [4] [degree]	further results
cytidine diphosphate choline					concentration of the cytidine diphosphate choline in filtrate (solubility) (ethanol concentration 50% by volume, 30° C.): 282 mg/mL; concentration of the cytidine diphosphate choline in filtrate (solubility) (ethanol concentration 50% by volume, 35° C.): 286 mg/mL; concentration of the cytidine diphosphate choline in filtrate (solubility) (ethanol concentration 50% by volume, 40° C.): 317 mg/mL; concentration of the cytidine diphosphate choline in filtrate (solubility) (ethanol concentration 66% by volume, 30° C.): 27.6 mg/mL; concentration of the cytidine diphosphate choline in filtrate (solubility) (ethanol concentration 66% by volume, 35° C.): 31.6 mg/mL; concentration of the cytidine diphosphate choline in filtrate (solubility) (ethanol concentration 66% by volume, 40° C.): 54.2 mg/mL; concentration of the cytidine diphosphate choline in filtrate (solubility) (ethanol concentration 71% by volume, 30° C.): 8.49 mg/mL; concentration of the cytidine diphosphate choline in filtrate (solubility) (ethanol concentration 71% by volume, 35° C.): 9.70 mg/mL; concentration of the cytidine diphosphate choline in filtrate (solubility) (ethanol concentration 71% by volume, 40° C.): 11.1 mg/mL; concentration of the cytidine diphosphate choline in filtrate (solubility) (ethanol concentration 75% by volume, 30° C.): 3.23 mg/mL; concentration of the cytidine diphosphate choline in filtrate (solubility) (ethanol concentration 75% by volume, 35° C.): 3.65 mg/mL; concentration of the cytidine diphosphate choline in filtrate (solubility) (ethanol concentration 75% by volume, 40° C.): 4.04 mg/mL; concentration of the cytidine diphosphate choline in filtrate (solubility) (ethanol concentration 78% by volume, 30° C.): 1.40 mg/mL; concentration of the cytidine diphosphate choline in filtrate (solubility) (ethanol concentration 78% by volume, 35° C.): 1.68 mg/mL; concentration of the cytidine diphosphate choline in filtrate (solubility) (ethanol concentration 78% by volume, 40° C.): 1.69 mg/mL; concentration of the cytidine diphosphate choline in filtrate (solubility) (ethanol concentration 80% by volume, 30° C.): 0.76 mg/mL; concentration of the cytidine diphosphate choline in filtrate (solubility) (ethanol concentration 80% by volume, 35° C.): 0.84 mg/mL; concentration of the cytidine diphosphate choline in filtrate (solubility) (ethanol concentration 80% by volume, 40° C.): 0.92 mg/mL
cytidine diphosphate choline [Comparative Example 1]	2.33	40.1	1.49	49.6	
cytidine diphosphate choline [Comparative Example 3]	4.19	50.8	2.19	57.4	
cytidine diphosphate choline [Comparative Example 4]	5.74	46.4	2.93	48.7	
cytidine diphosphate choline [Example 1]	3.42	39.6	2.13	46.9	
cytidine diphosphate choline [Example 2]	2.55	38.7	1.82	47.2	
cytidine diphosphate choline [Example 3]	3.58	47.1	2.19	52.8	
cytidine diphosphate choline [Example 4]	2.00	41.6	1.55	43.4	
cytidine diphosphate choline [Product of company A]	2.81	48.7	1.67	56.6	
